Values quoted from earlier work as cited in patent publication US20170119704A1, “TREATMENT OF COGNITIVE IMPAIRMENT” (Ovid Therapeutics Inc., priority 2015, published 2017).

Settings: in vivo

## CN(C)CCO/N=C(/C=C/c1ccc(O)cc1)c1ccccc1F [Eplivanserin, (1Z,2E)-1-(2-fluorophenyl)-3-(4-hydroxyphenyl)-prop-2-en-1-one-O-(2-dimethylaminoethyl)-oxime]
  absorption (well absorbed): > 70%
